Laboratory results: article PMC10882719 (Frontiers in Neuroscience, 2024)
Like-named read-outs stand apart in the source and are kept apart here.

Columns and labels:
Type in all cases: cell-based
168 GPCRs [1] = target: T1, 168 GPCRs (Homo sapiens, UniProt P08173)
T1 construct: host or cells: PathHunter cell lines
T1 sequence (P08173 1-479): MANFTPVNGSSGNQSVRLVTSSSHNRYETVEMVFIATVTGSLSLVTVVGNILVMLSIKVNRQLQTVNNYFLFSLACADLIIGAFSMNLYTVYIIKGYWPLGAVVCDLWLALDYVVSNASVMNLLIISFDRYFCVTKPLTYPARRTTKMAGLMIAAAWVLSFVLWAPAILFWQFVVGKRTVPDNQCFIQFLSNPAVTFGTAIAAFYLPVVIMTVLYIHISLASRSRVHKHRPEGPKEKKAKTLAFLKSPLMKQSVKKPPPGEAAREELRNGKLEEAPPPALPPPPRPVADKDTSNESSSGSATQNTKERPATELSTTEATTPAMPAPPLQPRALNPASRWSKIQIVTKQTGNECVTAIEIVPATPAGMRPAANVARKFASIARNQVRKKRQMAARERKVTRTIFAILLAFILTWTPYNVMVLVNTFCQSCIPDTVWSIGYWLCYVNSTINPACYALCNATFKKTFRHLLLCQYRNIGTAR

168 GPCRs [2] = target: T2, 168 GPCRs (Homo sapiens, UniProt P28222); details: HTR1B
T2 construct: host or cells: PathHunter cell lines

168 GPCRs [3] = target: T3, 168 GPCRs (Homo sapiens, UniProt P35346); details: SSTR5
T3 construct: host or cells: PathHunter cell lines

168 GPCRs [4] = target: T4, 168 GPCRs (Homo sapiens, UniProt P46092)
T4 construct: host or cells: PathHunter cell lines
T4 sequence (P46092 1-362): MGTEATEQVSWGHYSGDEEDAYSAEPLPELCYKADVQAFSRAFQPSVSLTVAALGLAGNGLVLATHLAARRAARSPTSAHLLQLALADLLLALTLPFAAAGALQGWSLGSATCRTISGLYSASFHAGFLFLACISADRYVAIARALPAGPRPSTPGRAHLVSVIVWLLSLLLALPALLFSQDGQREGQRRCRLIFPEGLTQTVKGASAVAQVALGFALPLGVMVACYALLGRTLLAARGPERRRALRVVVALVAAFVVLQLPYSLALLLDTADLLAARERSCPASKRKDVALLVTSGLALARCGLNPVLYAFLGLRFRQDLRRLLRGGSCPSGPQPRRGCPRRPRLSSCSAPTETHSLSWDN

168 GPCRs [5] = target: T5, 168 GPCRs (Homo sapiens, UniProt P47871); details: GCGR
T5 construct: host or cells: PathHunter cell lines

168 GPCRs [6] = target: T6, 168 GPCRs (Homo sapiens, UniProt P49238)
T6 construct: host or cells: PathHunter cell lines
T6 sequence (P49238 1-355): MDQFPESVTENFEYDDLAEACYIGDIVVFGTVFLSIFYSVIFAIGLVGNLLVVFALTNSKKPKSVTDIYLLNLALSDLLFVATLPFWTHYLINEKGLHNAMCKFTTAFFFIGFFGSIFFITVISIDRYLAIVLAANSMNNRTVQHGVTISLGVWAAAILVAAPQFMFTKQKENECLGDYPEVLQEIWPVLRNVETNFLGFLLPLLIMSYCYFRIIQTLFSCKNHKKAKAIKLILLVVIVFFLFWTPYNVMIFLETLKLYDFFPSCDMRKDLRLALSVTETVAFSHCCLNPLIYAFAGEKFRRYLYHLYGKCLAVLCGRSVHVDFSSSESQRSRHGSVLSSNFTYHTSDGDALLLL

168 GPCRs [7] = target: T7, 168 GPCRs (Homo sapiens, UniProt Q13324)
T7 construct: host or cells: PathHunter cell lines
T7 sequence (Q13324 1-411): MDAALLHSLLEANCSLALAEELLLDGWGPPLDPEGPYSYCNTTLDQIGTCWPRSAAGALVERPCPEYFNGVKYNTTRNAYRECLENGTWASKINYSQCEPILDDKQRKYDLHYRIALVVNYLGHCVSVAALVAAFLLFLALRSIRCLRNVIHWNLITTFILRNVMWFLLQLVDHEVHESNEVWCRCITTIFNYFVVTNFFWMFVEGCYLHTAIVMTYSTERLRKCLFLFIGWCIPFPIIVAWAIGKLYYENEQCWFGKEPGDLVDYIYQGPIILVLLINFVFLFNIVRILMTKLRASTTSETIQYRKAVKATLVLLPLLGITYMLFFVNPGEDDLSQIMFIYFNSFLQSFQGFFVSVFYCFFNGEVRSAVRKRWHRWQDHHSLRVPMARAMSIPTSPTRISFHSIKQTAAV

T3 sequence (P35346 whole entry): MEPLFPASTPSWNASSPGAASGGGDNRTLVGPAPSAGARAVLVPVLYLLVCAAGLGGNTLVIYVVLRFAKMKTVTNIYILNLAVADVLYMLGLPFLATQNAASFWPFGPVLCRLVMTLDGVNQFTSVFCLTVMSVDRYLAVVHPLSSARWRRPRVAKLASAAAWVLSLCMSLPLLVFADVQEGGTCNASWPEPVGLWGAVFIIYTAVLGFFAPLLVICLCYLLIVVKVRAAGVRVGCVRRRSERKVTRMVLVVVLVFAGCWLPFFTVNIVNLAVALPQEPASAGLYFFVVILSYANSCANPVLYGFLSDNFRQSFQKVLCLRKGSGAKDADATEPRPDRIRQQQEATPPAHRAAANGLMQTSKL
T5 sequence (P47871 26-477): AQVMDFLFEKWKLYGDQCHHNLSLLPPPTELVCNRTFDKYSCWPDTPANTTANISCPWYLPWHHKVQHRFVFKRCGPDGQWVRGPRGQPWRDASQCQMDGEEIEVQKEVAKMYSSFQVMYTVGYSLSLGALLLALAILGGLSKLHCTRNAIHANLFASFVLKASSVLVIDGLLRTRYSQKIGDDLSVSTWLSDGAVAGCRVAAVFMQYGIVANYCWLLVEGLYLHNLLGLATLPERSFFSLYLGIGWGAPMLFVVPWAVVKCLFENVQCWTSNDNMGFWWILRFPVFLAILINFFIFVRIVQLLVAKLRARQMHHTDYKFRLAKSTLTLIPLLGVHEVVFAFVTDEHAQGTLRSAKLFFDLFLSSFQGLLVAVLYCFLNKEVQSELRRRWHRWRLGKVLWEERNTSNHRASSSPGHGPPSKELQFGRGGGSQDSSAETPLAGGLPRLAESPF
T2 sequence (P28222 whole entry): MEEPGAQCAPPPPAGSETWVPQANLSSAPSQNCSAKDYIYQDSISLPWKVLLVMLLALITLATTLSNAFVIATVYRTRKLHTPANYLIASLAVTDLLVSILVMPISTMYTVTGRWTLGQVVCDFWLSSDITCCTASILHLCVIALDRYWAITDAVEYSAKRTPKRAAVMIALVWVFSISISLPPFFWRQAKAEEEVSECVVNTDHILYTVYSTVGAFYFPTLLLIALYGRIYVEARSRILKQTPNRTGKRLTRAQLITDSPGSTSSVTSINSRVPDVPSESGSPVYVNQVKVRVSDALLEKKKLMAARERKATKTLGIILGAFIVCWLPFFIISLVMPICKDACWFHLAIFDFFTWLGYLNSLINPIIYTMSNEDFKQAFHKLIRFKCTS

| Compound | % Agonist Activity (168 GPCRs [1]; CHRM4, 1 uM) | % Antagonist Activity (168 GPCRs [1]; CHRM4, 1 uM) | % Agonist Activity (168 GPCRs [1]; CHRM4, 10 uM) | % Antagonist Activity (168 GPCRs [1]; CHRM4, 10 uM) | % Agonist Activity (168 GPCRs [2]; 1 uM) | % Antagonist Activity (168 GPCRs [2]; 1 uM) | % Agonist Activity (168 GPCRs [2]; 10 uM) | % Antagonist Activity (168 GPCRs [2]; 10 uM) | % Agonist Activity (168 GPCRs [3]; Conc 1 uM) | % Antagonist Activity (168 GPCRs [3]; Conc 1 uM) | % Agonist Activity (168 GPCRs [3]; Conc 10 uM) | % Antagonist Activity (168 GPCRs [3]; Conc 10 uM) | % Agonist Activity (168 GPCRs [4]; CCR10, 1 uM) | % Antagonist Activity (168 GPCRs [4]; CCR10, 1 uM) | % Agonist Activity (168 GPCRs [4]; CCR10, 10 uM) | % Antagonist Activity (168 GPCRs [4]; CCR10, 10 uM) | % Agonist Activity (168 GPCRs [5]; 1 uM) | % Antagonist Activity (168 GPCRs [5]; 1 uM) | % Agonist Activity (168 GPCRs [5]; 10 uM) | % Antagonist Activity (168 GPCRs [5]; 10 uM) | also measured |
| --- | --- | --- | --- | --- | --- | --- | --- | --- | --- | --- | --- | --- | --- | --- | --- | --- | --- | --- | --- | --- | --- |
| CNC(C)Cc1ccc2c(c1)OCO2 (centres unmarked) [MDMA, 3,4-Methylenedioxy methamphetamine, reference compound] | -1.8% | 32.8% | -3.2% | 26.3% | 8.5% | -7.3% | 10.4% | -0.1% | -2.5% | 1.6% | -3.2% | -2% | -1.1% | 8.9% | -0.7% | 12.1% | -1% | -1.7% | -0.9% | -7.4% | % Agonist Activity (168 GPCRs [6]; CX3CR1, 1 uM): -1.3%; % Antagonist Activity (168 GPCRs [6]; CX3CR1, 1 uM): 6.5%; % Agonist Activity (168 GPCRs [6]; CX3CR1, 10 uM): -1.4%; % Antagonist Activity (168 GPCRs [6]; CX3CR1, 10 uM): 3.7%; % Agonist Activity (168 GPCRs [7]; CRHR2, 1 uM): -0.2%; % Antagonist Activity (168 GPCRs [7]; CRHR2, 1 uM): 4.3%; % Agonist Activity (168 GPCRs [7]; CRHR2, 10 uM): -0.1%; % Antagonist Activity (168 GPCRs [7]; CRHR2, 10 uM): 5.7% |
| CNC(C)C(=O)c1ccc2c(c1)OCO2 (centres unmarked) [methylone] | -5.8% | 10.2% | -6.2% | 6.7% | 3.3% | -9.5% | 6.7% | -6.2% | -2.4% | 14.7% | -1.3% | 5.7% | -2% | 5.4% | -1.8% | 2.6% | -2.3% | -16% | -3% | -7.7% | % Agonist Activity (168 GPCRs [6]; CX3CR1, 1 uM): 0%; % Antagonist Activity (168 GPCRs [6]; CX3CR1, 1 uM): -0.2%; % Agonist Activity (168 GPCRs [6]; CX3CR1, 10 uM): -0.4%; % Antagonist Activity (168 GPCRs [6]; CX3CR1, 10 uM): -6.1%; % Agonist Activity (168 GPCRs [7]; CRHR2, 1 uM): 0.9%; % Antagonist Activity (168 GPCRs [7]; CRHR2, 1 uM): -2%; % Agonist Activity (168 GPCRs [7]; CRHR2, 10 uM): 0.9%; % Antagonist Activity (168 GPCRs [7]; CRHR2, 10 uM): -0.3% |
